# Experimental data as given in US20060004088A1, “Furan derivatives for preventing and curing osteoporosis and pharmaceutical compositions containing the same” (OCT INC., priority 2002, published 2006).
# Entries after “also recorded” stand apart in the source; their conditions may differ.
# Experiments:
# [1] = tested on: ovariectomized white mice with developed osteoporosis; experiment: Therapeutic effect on osteoporosis, tibia histology; assay type: in vivo; conditions: four weeks after ovariectomy, then oral 220 μl in 30 ml water for four weeks
# Experimental: In order to evaluate effects of the compound of the present invention on treatment and prevention of osteoporosis, female white mice with osteoporosis induced by ovariectomy were used as a disease model. After ovariectomy, mice were administered with the compound of the present invention. Tibias were dissected from the mice, and observed histologically.
# In order to evaluate therapeutic effect of the Compound 1 on osteoporosis, after ovariectomy, the mice were fed with solid feedstuff for four weeks. After checking progress of osteoporosis in the mice, a test group was administered with the Compound 1 for four weeks, according to the same method as described above, while a control group was fed with only solid feedstuff. Eight weeks after ovariectomy, tibia tissue specimens were prepared according to a method known the art.
# The tibia tissue specimens prepared in the Experimental Example 3-2 were fixed in a Bouin's solution for about 24 hrs. Then, the tibia tissue specimens were decalcificated with 5% nitric acid for about 60 hrs in order to remove inorganic substances including calcium from the tibias, thus softening the tibias to the degree suitable for fracture. […]
# [2] = tested on: osteoclast pregenitor cells; experiment: Inhibition rates of furan derivatives versus osteoclast formation (TRAP staining); assay type: cell-based, mice; conditions: TRAP-positive multinucleated cells, untreated control set as 100%
# Outline: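 Non-adherent mouse bone-marrow osteoclast precursors cultured 8 days with 20 ng/ml M-CSF and 30 ng/ml RANKL in presence of compound. TRAP-positive cells with ≥3 nuclei counted; inhibition expressed relative to untreated control set at 100%.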
# [3] = tested on: alkaline phosphatase (ALP) in HOS cells; experiment: Alkaline phosphatase (osteoblast marker enzyme) activity in HOS cells; assay type: cell-based, human; conditions: text summary, concentration not stated
# Description: In the following tests, three kinds of cell lines were used. The human osteosarcoma cell lines, MG-63 (ATCC No. CRL-1427) and HOS (ATCC No. CRL-1543), and mouse muscle C2C12 muscle cells (ATCC No. CRL-1772) were purchased from ATCC (American Type Culture Collection, Rockville, USA), and cultured in Dulbecco's modified Eagle's medium (DMEM) supplemented with 10% fetal bovine serum (FBS).
# To examine whether the Compound 1 affects positively or negatively osteoblast activity, alkaline phosphatase (ALP) activity was measured. HOS cells were aliquotted onto a 96-well microplate at a density of 5×10^3 cells per well, and cultured. When forming a monolayer, the cells were treated with the naturally extracted compound (Compound 1) at prescribed concentrations. After incubation in 10% FBS-containing DMEM for 48 hrs, the cells were treated with 0.1% Triton X-100/saline for 30 min at 37° C. A portion of each cell lysate was reacted with 0.1 N glycine-NaOh buffer (pH 10.4) for 30 min at 37° C. in the presence of 100 mM nitrophenyl phosphate (PNPP) as a substrate of alkaline phosphate. The amount of PNP (ρ-nitrophenol) released from the substrate PNPP was determined by measuring absorbance at 405 nm. Protein amount was determined by a modified Lowry method, and enzyme activity was designated as nmol substrate cleaved/h/mg protein.
compound,measurement,setting,value
"O=Cc1ccc(CO)o1 [Compound 1, 5-hydroxymethylfuran-2-carboxyaldehyde]","trabecular bone density, histology",[1],just a slight decrease in trabecular bone density; also recorded: no trabecular bone loss
same,"Inhibition rate against osteoclast formation, %",[2]; 0.1 μM,0%
same,"Inhibition rate against osteoclast formation, %",[2]; 1 μM,0%
same,"Inhibition rate against osteoclast formation, %",[2]; 10 μM,30%
same,alkaline phosphatase activity compared to a control not treated,[3],about 121%
same,alkaline phosphatase activity compared to a control not treated,[3]; listed as Example 1,120%
